In PubChem BioAssay AID256 (DTP/NCI, 2004):
“And” between values parts separate entries of the source, which are not always exact repeats. Identical values can stand only once. Toxic doses and inconclusive results are not listed.

System: CD2F1 mice, L1210 leukemia ip, survival T/C
Assay: NCI In Vivo Anticancer Drug Screen. Data for tumor model L1210 Leukemia (intraperitoneal) in CD2F1 (CDF1) mice
Conditions: higher = longer survival
Summary of the method: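 Compound-dosed mice with transplantable tumor versus matched vehicle controls; endpoint ratio T/C reported.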

[1] = endpoint: mean survival time, dose: 100.0 mg/kg/injection, schedule: Q04DX002 (ip), vehicle: saline with Tween-80
[2] = endpoint: mean survival time, dose: 50.0 mg/kg/injection, schedule: Q01DX009 (ip), vehicle: saline with Tween-80
[3] = endpoint: mean survival time, dose: 100.0 mg/kg/injection, schedule: Q01DX009 (ip), vehicle: saline with Tween-80
[4] = endpoint: mean survival time, dose: 200.0 mg/kg/injection, schedule: Q01DX009 (ip), vehicle: saline with Tween-80
[5] = endpoint: mean survival time, dose: 200.0 mg/kg/injection, schedule: Q04DX002 (ip), vehicle: saline with Tween-80
[6] = endpoint: mean survival time, dose: 400.0 mg/kg/injection, schedule: Q04DX002 (ip), vehicle: saline with Tween-80

Structure (SMILES): c1ccc(CNc2nnnn2C2CCCCC2)cc1
- T/C (endpoint: mean survival time, dose: 25.0 mg/kg/injection, schedule: Q04DX002 (ip), vehicle: saline with Tween-80): 95 % of control
- T/C (endpoint: mean survival time, dose: 50.0 mg/kg/injection, schedule: Q04DX002 (ip), vehicle: saline with Tween-80): 91 % of control
- T/C [1]: 102 % of control

Structure (SMILES): CCCCN(Cc1ccccc1)CC(O)C[NH-].CS(C)=O.[Cl-].[Cl-].[Pt+4] (stereo not drawn)
- T/C (endpoint: median survival time, dose: 10.0 mg/kg/injection, schedule: Q04DX003 (ip), vehicle: saline): 100 % of control
- T/C (endpoint: median survival time, dose: 20.0 mg/kg/injection, schedule: Q04DX003 (ip), vehicle: saline): 110 % of control
- T/C (endpoint: median survival time, dose: 40.0 mg/kg/injection, schedule: Q04DX003 (ip), vehicle: saline): 108 % of control
- T/C (endpoint: median survival time, dose: 50.0 mg/kg/injection, schedule: Q04DX003 (ip), vehicle: saline): 103 % of control
- T/C (endpoint: median survival time, dose: 80.0 mg/kg/injection, schedule: Q04DX003 (ip), vehicle: saline): 109 % of control

Structure (SMILES): Cc1ccc(NC(=O)N2CCCCC2C)cc1[N+](=O)[O-] (stereo not drawn)
- T/C [2]: 102 % of control
- T/C [3]: 94 % of control
- T/C [4]: 102 % of control

Structure (SMILES): CCOC(=O)CSCC(=O)C(C)(C)C
- T/C (endpoint: mean survival time, dose: 100.0 mg/kg/injection, schedule: Q01DX001 (ip), vehicle: saline with Tween-80): 98 % of control
- T/C (endpoint: mean survival time, dose: 200.0 mg/kg/injection, schedule: Q01DX001 (ip), vehicle: saline with Tween-80): 98 % of control
- T/C (endpoint: mean survival time, dose: 400.0 mg/kg/injection, schedule: Q01DX001 (ip), vehicle: saline with Tween-80): 102 % of control

Structure (SMILES): CCCCCCCCCCCCCCCC(=O)Nc1ccccc1CC
- T/C [1]: 91 % of control
- T/C [5]: 95 % of control
- T/C [6]: 103 % of control

Structure (SMILES): CO[C@@]12[C@@H]3N[C@@H]3CN1C1=C(C(=O)C(NCCc3ccc(O)cc3)=C(C)C1=O)[C@@H]2COC(N)=O
- T/C (endpoint: mean survival time, dose: 1.5 mg/kg/injection, schedule: Q01DX001 (ip), vehicle: water): 102 % of control
- T/C (endpoint: mean survival time, dose: 3.0 mg/kg/injection, schedule: Q01DX001 (ip), vehicle: water): 104 % of control and 111 % of control
- T/C (endpoint: mean survival time, dose: 6.0 mg/kg/injection, schedule: Q01DX001 (ip), vehicle: water): 111 % of control
- T/C (endpoint: mean survival time, dose: 12.0 mg/kg/injection, schedule: Q01DX001 (ip), vehicle: water): 115 % of control
- T/C (endpoint: mean survival time, dose: 48.0 mg/kg/injection, schedule: Q01DX001 (ip), vehicle: water): 151 % of control

Structure (SMILES): CN(C)CCCNC(=O)c1ccc(N)cc1
- T/C (endpoint: mean survival time, dose: 100.0 mg/kg/injection, schedule: Q04DX002 (ip), vehicle: saline): 102 % of control
- T/C (endpoint: mean survival time, dose: 200.0 mg/kg/injection, schedule: Q04DX002 (ip), vehicle: saline): 105 % of control
- T/C (endpoint: mean survival time, dose: 400.0 mg/kg/injection, schedule: Q04DX002 (ip), vehicle: saline): 97 % of control

Structure (SMILES): COc1ccc(NC(=O)Nc2ccc(Cl)cc2OC)cc1
- T/C [5]: 93 % of control
- T/C [6]: 90 % of control

Structure (SMILES): Nc1nc2c(ncn2-c2cccc(C(F)(F)F)c2)c(=O)[nH]1
- T/C (endpoint: mean survival time, dose: 100.0 mg/kg/injection, schedule: Q04DX003 (ip), vehicle: saline with Tween-80): 94 % of control
- T/C (endpoint: mean survival time, dose: 200.0 mg/kg/injection, schedule: Q04DX003 (ip), vehicle: saline with Tween-80): 89 % of control
- T/C (endpoint: mean survival time, dose: 400.0 mg/kg/injection, schedule: Q04DX003 (ip), vehicle: saline with Tween-80): 92 % of control

Structure (SMILES): CC(=O)C1CC2c3ccccc3C1c1ccccc12 (stereo not drawn)
- T/C [3]: 98 % of control
- T/C (endpoint: mean survival time, dose: 100.0 mg/kg/injection, schedule: Q04DX003 (ip), vehicle: saline sonified): 100 % of control
- T/C [4]: 98 % of control
- T/C (endpoint: mean survival time, dose: 200.0 mg/kg/injection, schedule: Q04DX003 (ip), vehicle: saline sonified): 98 % of control
- T/C (endpoint: mean survival time, dose: 400.0 mg/kg/injection, schedule: Q01DX009 (ip), vehicle: saline with Tween-80): 95 % of control
- T/C (endpoint: mean survival time, dose: 400.0 mg/kg/injection, schedule: Q04DX003 (ip), vehicle: saline sonified): 91 % of control

Structure (SMILES): COc1cc(Cl)ccc1NC(=O)Nc1c(C)n(C)n(-c2ccccc2)c1=O
- T/C [2]: 90 % of control
- T/C [3]: 90 % of control

Structure (SMILES): CC1CCCCCCCCCCC12OCCO2 (stereo not drawn)
- T/C [1]: 87 % of control
- T/C [5]: 98 % of control
- T/C [6]: 106 % of control

Structure (SMILES): O=[N+]([O-])c1ccccc1O
- T/C (endpoint: mean survival time, dose: 100.0 mg/kg/injection, schedule: Q04DX003 (ip), vehicle: Klucel (hydroxypropylcellulose) (HPC)): 97 % of control
- T/C (endpoint: mean survival time, dose: 200.0 mg/kg/injection, schedule: Q04DX003 (ip), vehicle: Klucel (hydroxypropylcellulose) (HPC)): 97 % of control
- T/C (endpoint: mean survival time, dose: 400.0 mg/kg/injection, schedule: Q04DX003 (ip), vehicle: Klucel (hydroxypropylcellulose) (HPC)): 96 % of control

Structure (SMILES): NC(=O)c1ccc[n+](CCc2c[nH]c3ccccc23)c1
- T/C (endpoint: mean survival time, dose: 18.75 mg/kg/injection, schedule: Q01DX009 (ip), vehicle: saline with Tween-80): 101 % of control
- T/C (endpoint: mean survival time, dose: 37.5 mg/kg/injection, schedule: Q01DX009 (ip), vehicle: saline with Tween-80): 92 % of control
- T/C (endpoint: mean survival time, dose: 75.0 mg/kg/injection, schedule: Q01DX009 (ip), vehicle: saline with Tween-80): 103 % of control
- T/C (endpoint: mean survival time, dose: 75.0 mg/kg/injection, schedule: Q04DX003 (ip), vehicle: saline with Tween-80): 88 % of control
